Assay: Skin absorption after topical application to a hand, disappearance of red color
Assay type: in vivo, human

SMILES: CO[C@H]1/C=C/O[C@@]2(C)Oc3c(C)c(O)c4c(O)c(c(/C=N/N5CCN(C)CC5)c(O)c4c3C2=O)NC(=O)/C(C)=C\C=C\[C@H](C)[C@H](O)[C@@H](C)[C@@H](O)[C@@H](C)[C@H](OC(C)=O)[C@@H]1C [rifampicin]
- Time until absorbed in skin tissue (red color disappeared): 1 to 2 h
